The values below are quoted from earlier work in patent publication US8034370B2, “Ocular implant made by a double extrusion process” (Allergan, Inc., priority 2003, dated 2011).

The conditions of data set [1]: after topical administration.
The conditions of data set [2]: in vivo efficacy.

Like-named read-outs stand apart in the source and are kept apart here.

`C[C@@H]1C[C@H]2[C@@H]3CCC4=CC(=O)C=C[C@]4(C)[C@@]3(F)[C@@H](O)C[C@]2(C)[C@@]1(O)C(=O)CO` [Dexamethasone, pregna-1,4-diene-3,20-dione-9-fluoro-11,17,21-trihydroxy-16-methyl-, (11β,16α)]: the Solubility result is “Ethanol: Sparingly soluble” (Ethanol), “Methylene chloride: slightly soluble” (Methylene chloride) and “Water: practically insoluble” (Water). Also, the “fraction reaching the anterior segment” value in data set [1] was “about 1%”.
In the case of `C[C@]12CCC(=O)C=C1CC[C@@H]1[C@@H]2[C@@H](O)C[C@@]2(C)[C@H]1CC[C@]2(O)C(=O)CO` [hydrocortisone], the “potency relative to dexamethasone” value in data set [2] was “approximately twenty five”.
